Data on twelve compounds can be found in patent publication US4376785A, “Cyclopropanecarboxylates and a low fish toxic insecticide and/or acaricide containing them” (priority 1980, dated 1983).

Structures are written as SMILES.

Data set [1] relates to green rice leafhopper (Nephotettix cincticeps), R-strain. The data set can be described thus: Insecticidal activity against green rice leafhopper, sprayed rice plants, Test example 1. It is filed as in vivo. As to conditions: green rice leafhopper female adults, spray on rice plant, 26° C., 24 hours. The procedure:
The emulsifiable concentrates of the present compounds and reference compounds prepared in Preparation example 1 were each formulated into test solutions having four different concentrations of active ingredient between 500 ppm and 0.5 ppm. Each test solution was sprayed on a rice plant in a 180-ml plastic cup which had elapsed one month after sowing, at a rate of 15 ml/2 cups by means of a turn table. After air-drying, the rice plate was covered with a wire-screen cage, and 15 female adults of green rice leafhopper (Nephotettix cincticeps) (a strain resistant to carbamates and organo-phosphates, hereinafter referred to as R-strain) were liberated therein. The plant was placed in an artificial climate chamber kept at 26° C. After 24 hours, the dead and alive were examined. The median lethal concentratin [LC50 (ppm)] was calculated from the mortality determined by 3 replications. […]

Data set [2] can be described thus: Toxicity to killifish (TLm48), Test example 1. As to conditions: for selectivity ratio: in vivo, TLm48 divided by concentration in water at green rice leafhopper LC50, read-out: Safety coefficient to fishes (a)/(b); for LC50 at 48 h: water, killifish, medium tolerance limit, read-out: Toxicity to fishes TLm48 (a). It is filed as in vivo, Oryzias latipes. The procedure:
Toxicity to killifish (Oryzias latipes) was tested accordig to the test method for toxicity to fishes described in Notification B No. 2735 of the Ministry of Agriculture and Forestry (Nov. 25, 1965). Namely, each of the present compounds (1), (2), (4), (5), (6), (8), (9), (11) and reference compounds was dissolved or suspended in "Tween 80" and diluted successively with dechlorinated tap water. Ten killifish (0.2-0.3 g per fish) were released in a 10-liter glass vessel containing 5 liters of each preparation.
In order to make it clearer that the present compounds have a low toxicity to fishes as well as a high insecticidal activity, a safety coefficient to fishes was calculated from the test results of toxicity to fishes and insecticidal activity. [formula]
A detailed explanation will be given to a method of how to calculate the safety coefficient. In the case of green rice leafhoppers, calculation was based on the concentration of active ingredient in water obtained by applying a test solution containing the active ingredient in an amount corresponding to LC50 (ppm) to a flooded paddy field 5 cm deep at a rate of 100 liter/10 are, provided that all the active ingredient applied entered the water.
For example, the safety coefficient to fishes of the present compound (1) is calculated as follows: The quantity of water in a flooded paddy field 5 cm deep and 10 are in area is 50 tons; when a test solution containing the active ingredient in an amount corresponding to LC50 (ppm) is added to the paddy field at a rate of 100 liter/10 are the concentration of the active ingredient in water (hereinafter referred to as (b)) is 0.008 pp; as the toxicity to fishes [TLm48 (ppm)] (hereinafter referred to as (a)) is >2.0 ppm, said coefficient can be calculated by dividing (a) by (b). In this case, the coefficient is >250, which means that the present compound (1) has a safety higher than 250-fold.

Data set [3] concerns green rice leafhopper (Nephotettix cincticeps). The data set is described as follows: Simulated paddy field box test, green rice leafhopper, Test example 6. It is filed as in vivo. To be noted: wettable powder, 100 ppm, 100 liter/10 are, after 48 hours. As to the method:
(§1) The wettable powder of each of the present compounds (1), (3), (5), (6) and (11) prepared in Preparation example 4 was diluted with water so that the concentration of active ingredient was 100 ppm. Soil was placed in a plastic box [5 m×5 m×2 m (deep)] to a level of 50 cm from the bottom, and rice plants about 50 cm high were transplanted at invervals of 50 cm. Water was then placed in the box so that water depth was 5 cm, and 20 killifishes (Oryzias latipes) were liberated therein. Thereafter, the above dilute solution was sprayed on the box at a rate of 100 liter/10 are. The solution fell on the rice plants as well as on the water surface.
(§2) One hour after treatment, 100 female adults of green rice leafhopper (Nephotettix cincticeps) were liberated in the box which was immediately covered with a net.

Data set [4] relates to killifishes (Oryzias latipes). The data set can be described thus: Simulated paddy field box test, killifish survival, Test example 6. As to conditions: wettable powder, 100 ppm, 100 liter/10 are, water depth 5 cm, after 48 hours. The data set is classed as in vivo. The procedure: as §1, §2
For data set [5], the system named is housefly (Musca domestica). The data set is described as follows: Housefly mortality, treated filter paper with bait, Test example 7. It is filed as in vivo. As to conditions: 0.7 ml on filter paper, housefly female adults, 48 hours. The procedure:
The emulsifiable concentrate obtained in preparation Example 1 was diluted 200 times with water (corresponding to 500 ppm of the active ingredient). On the bottom a polyethylene cup of 5.5 cm in diameter was placed a piece of filter paper of the same size, and 0.7 ml of the above dilute liquor was dropped on the filter paper. Sucrose (30 mg) was placed on the paper as bait. Thereafter, 10 housefly female adults (Musca domestica) were liberated in the cup which was then covered with a lid. After 48 hours, the dead and alive were counted to obtain mortality (4 replications).

Data set [6] concerns CSMA strain housefly (Musca domestica). The data set can be described thus: Topical application to housefly adults, Test example 8. It is filed as in vivo. To be noted: topical to ventral thorax, 0.5 μl/adult, female adults, 24 hours. As to the method:
The present compounds as below and reference compounds were each diluted with acetone into test solutions having four different concentrations of active ingredient. Each test solution was topically applied to the ventral throrax of CSMA strain housefly female adults (Musca domestica), at a rate of 0.5 μl/adult by means of a microapplicator.
The adults were then liberated in a polyethylene cup and fed with milk, sugar and water. After 24 hours, the dead and alive were observed. The median lethal dosage (LD50 μg/adult) was obtained from the morality (3 replications).

Data set [7] concerns carmine mites (Tetranychus cinnabarinus). The data set can be described thus: Damage to rice plants by carmine mites, Test example 4. The data set is classed as in vivo. As to conditions: 500 ppm spray, after 10 days. As to the method: The emulsifiable concentrate of each of the present compounds (3), (5), (9) and (11) prepared in Preparation example 1 was diluted with water so that the concentration of the active ingredient was 500 ppm. The dilute liquor was thoroughly sprayed on rice plants (grown in a 1/10,000 are Waner's pot) on which carmine mites (Tetranychus cinnabarinus) in all stages were made parasitic.

As for `CC1(C)[C@H](C(=O)OC(C#N)c2ccc(F)c(Oc3ccc(Br)cc3)c2)[C@@H]1C(Br)C(Cl)(Cl)Br` (relative stereo) [compound (2), 3-(4-Bromophenoxy)-4-fluoro-α-cyanobenzyl dl-cis-2,2-dimethyl-3-(1,2-dibromo-2,2-dichloroethyl)cyclopropanecarboxylate], in data set [1], the LC50 turned out to be 6.0 ppm. Also, in data set [2], the selectivity ratio was over 167 and the LC50 at 48 h was over 2 µg/mL.

As for `CC1(C)[C@H](C(=O)OC(C#N)c2ccc(F)c(Oc3ccc(Cl)cc3)c2)[C@H]1C(Br)C(Cl)(Cl)Br` (relative stereo) [compound (6), 3-(4-Chlorophenoxy)-4-fluoro-α-cyanobenzyl dl-trans-2,2-dimethyl-3-(1,2-dibromo-2,2-dichloroethyl)cyclopropanecarboxylate], the “green rice leafhoppers alive” value in data set [3] is “no alive green rice leafhoppers were found”. Also, the killifishes alive result in data set [4] was “all of the killifishes were alive”. Also, the LC50 in data set [1] was 2.7 ppm. In data set [5], this compound showed a mortality at 500 ppm of 100%. Besides, in data set [6], the LD50 is 0.031 μg/adult. In addition, in data set [2], the selectivity ratio is over 200 and the LC50 at 48 h was over 1 µg/mL.

With `CC1(C)[C@H](C(=O)OC(C#N)c2ccc(F)c(Oc3ccc(Cl)cc3)c2)[C@@H]1C(Br)C(Cl)(Cl)Br` (relative stereo) [compound (7), 3-(4-Chlorophenoxy)-4-fluoro-α-cyanobenzyl dl-cis-2,2-dimethyl-3-(1,2-dibromo-2,2-dichloroethyl)cyclopropanecarboxylate], in data set [5], the mortality at 500 ppm amounted to 100%.

In data set [1], `CC1(C)C(C(=O)OC(C#N)c2cccc(Oc3ccccc3)c2)C1C(Br)C(Cl)(Cl)Br` (stereo not drawn) [(A), reference compound] had an LC50 of 5.0 ppm. Moreover, in data set [2], the selectivity ratio was determined as 50.

`CC1(C)C(C=C(Cl)Cl)C1C(=O)OC(C#N)c1ccc(F)c(Oc2ccccc2)c1` (stereo not drawn) [(B), reference compound]: in data set [1], the LC50 was 2.5 ppm. In data set [2], the selectivity ratio was under 2 and the LC50 at 48 h is under 0.01 µg/mL.

In turn, `CC1(C)C(C(=O)OC(C#N)c2cccc(Oc3ccc(Cl)cc3)c2)C1C(Br)C(Cl)(Cl)Br` (stereo not drawn) [(C), reference compound] registered an LD50 in data set [6] of 0.062 μg/adult.

As for `CC1(C)C(C(=O)OC(C#N)c2cccc(Oc3ccc(Br)cc3)c2)C1C(Br)C(Cl)(Cl)Br` (stereo not drawn) [(D), reference compound], the LD50 in data set [6] worked out at 0.063 μg/adult.

Consider `CC1(C)C(C(=O)OC(C#N)c2ccc(F)c(Oc3ccc(Br)cc3)c2)C1C(Br)C(Br)(Br)Br` (stereo not drawn) [compound (3), 3-(4-Bromophenoxy)-4-fluoro-α-cyanobenzyl 2,2-dimethyl-3-(1,2,2,2-tetrabromoethyl)cyclopropanecarboxylate], for which the “green rice leafhoppers alive” value in data set [3] was “no alive green rice leafhoppers were found”. In addition, the killifishes alive entry in data set [4] was “all of the killifishes were alive”. Further, in data set [7], the “damage to rice plants by carmine mites” value is recorded as “the spreading of the damage could be prevented”.

As to `CC1(C)[C@H](C(=O)OC(C#N)c2ccc(F)c(Oc3ccc(Br)cc3)c2)[C@@H]1C(Br)C(Br)(Br)Br` (stereo partly drawn) [compound (4), 3-(4-Bromophenoxy)-4-fluoro-α-cyanobenzyl d-cis-2,2-dimethyl-3-(1,2,2,2-tetrabromoethyl)cyclopropanecarboxylate], the LC50 in data set [1] was 6.3 ppm. In data set [2], the selectivity ratio is over 154 and the LC50 at 48 h was over 2 µg/mL.

Compound `CC1(C)C(C(=O)OC(C#N)c2ccc(F)c(Oc3ccc(Cl)cc3)c2)C1C(Br)C(Br)(Br)Br` (stereo not drawn) [compound (8), 3-(4-Chlorophenoxy)-4-fluoro-α-cyanobenzyl 2,2-dimethyl-3-(1,2,2,2-tetrabromoethyl)cyclopropanecarboxylate] had an LC50 in data set [1] of 5.8 ppm. In data set [5], this compound yielded a mortality at 500 ppm of 100%. In data set [2], the selectivity ratio is over 83 and the LC50 at 48 h is over 1 µg/mL.

Regarding `CC1(C)[C@H](C(=O)OC(C#N)c2ccc(F)c(Oc3ccc(Cl)cc3)c2)[C@H]1C(Br)C(Cl)(Cl)Br` (stereo partly drawn) [compound (9), 3-(4-Chlorophenoxy)-4-fluoro-α-cyanobenzyl d-trans-2,2-dimethyl-3-(1,2-dibromo-2,2-dichloroethyl)cyclopropanecarboxylate], in data set [1], the LC50 was 1.5 ppm. Besides, the “damage to rice plants by carmine mites” value in data set [7] is reported as “the spreading of the damage could be prevented”. The mortality at 500 ppm in data set [5] is 100%. In addition, the LD50 in data set [6] is recorded as 0.018 μg/adult. Further, in data set [2], the selectivity ratio is over 333 and the LC50 at 48 h is over 1 µg/mL.

As for `CC1(C)[C@H](C(=O)OC(C#N)c2ccc(F)c(Oc3ccc(Cl)cc3)c2)[C@@H]1C(Br)C(Cl)(Cl)Br` (stereo partly drawn) [compound (10), 3-(4-Chlorophenoxy)-4-fluoro-α-cyanobenzyl d-cis-2,2-dimethyl-3-(1,2-dibromo-2,2-dichloroethyl)cyclopropanecarboxylate], the mortality at 500 ppm in data set [5] turned out to be 100%. Further, the LD50 in data set [6] is reported as 0.030 μg/adult.

In general, mortality refers to the share of the test organisms that died. High values mean a strong lethal effect, low ones a weak lethal effect.
